# In the supplement of paper PMC10307832:
# Legend:
# Experiment in all cases: relative viability (nuclei count vs DMSO), 5 days (fraction); higher = more cells survive
# Dabrafenib + Lapatinib = compound: CC(C)(C)c1nc(-c2cccc(NS(=O)(=O)c3c(F)cccc3F)c2F)c(-c2ccnc(N)n2)s1 [Dabrafenib] + CS(=O)(=O)CCNCc1ccc(-c2ccc3ncnc(Nc4ccc(OCc5cccc(F)c5)c(Cl)c4)c3c2)o1 [Lapatinib] (partner 2 µM)
# Method in brief: (§1)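 Relative viability divides the nuclei count in treated wells by that in vehicle wells. Lung cancer cell lines were seeded in 1536-well plates, dosed by pin tool the next day, and fixed and stained after 5 days in one step with final 0.05% Triton X-100, 1% formaldehyde and 1 ug/ml Hoechst. Dosing was a single drug or a fixed anchor-drug dose plus five library-drug doses (not always all listed) in √10 steps, and values are medians of duplicate plates imaged at 4×.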
# VX-702 + Alpelisib = compound: NC(=O)c1ccc(N(C(N)=O)c2c(F)cccc2F)nc1-c1ccc(F)cc1F [VX-702] + Cc1nc(NC(=O)N2CCC[C@H]2C(N)=O)sc1-c1ccnc(C(C)(C)C(F)(F)F)c1 [Alpelisib] (partner 2 µM)
# Method in brief: as §1
# VX-702 + Olaparib = compound: NC(=O)c1ccc(N(C(N)=O)c2c(F)cccc2F)nc1-c1ccc(F)cc1F [VX-702] + O=C(c1cc(Cc2n[nH]c(=O)c3ccccc23)ccc1F)N1CCN(C(=O)C2CC2)CC1 [Olaparib] (partner 8 µM)
# Method in brief: as §1
# VX-702 + Tozasertib = compound: NC(=O)c1ccc(N(C(N)=O)c2c(F)cccc2F)nc1-c1ccc(F)cc1F [VX-702] + Cc1cc(Nc2cc(N3CCN(C)CC3)nc(Sc3ccc(NC(=O)C4CC4)cc3)n2)n[nH]1 [Tozasertib] (partner 0.1 µM)
# Method in brief: as §1
Cell Line,relative viability (Dabrafenib + Lapatinib; first compound 0.003 µM),relative viability (Dabrafenib + Lapatinib; first compound 0.009487 µM),relative viability (Dabrafenib + Lapatinib; first compound 0.03 µM),relative viability (Dabrafenib + Lapatinib; first compound 0.09487 µM),relative viability (Dabrafenib + Lapatinib; first compound 0.3 µM),relative viability (VX-702 + Alpelisib; first compound 0.02 µM),relative viability (VX-702 + Alpelisib; first compound 0.2 µM),relative viability (VX-702 + Alpelisib; first compound 0.6325 µM),relative viability (VX-702 + Alpelisib; first compound 2 µM),relative viability (VX-702 + Olaparib; first compound 0.02 µM),relative viability (VX-702 + Olaparib; first compound 0.2 µM),relative viability (VX-702 + Olaparib; first compound 0.6325 µM),relative viability (VX-702 + Olaparib; first compound 2 µM),relative viability (VX-702 + Tozasertib; first compound 0.02 µM),relative viability (VX-702 + Tozasertib; first compound 0.2 µM),relative viability (VX-702 + Tozasertib; first compound 0.6325 µM),relative viability (VX-702 + Tozasertib; first compound 2 µM)
HCC-44,0.996,0.982,1.11,0.86,0.964,0.861,0.866,0.588,0.8,1.01,0.982,0.989,0.963,0.765,0.893,1.05,1.3
ABC-1,1.14,1.24,1.3,1.2,1.05,0.948,,0.901,1,0.443,0.894,1.03,0.746,0.152,0.162,0.18,0.207
HARA,0.648,0.683,0.565,0.751,0.955,0.789,0.832,0.836,0.921,0.87,,0.779,0.964,0.113,0.0909,0.118,0.117
A-427,,1.06,0.878,0.793,1.05,0.997,0.99,1.1,1.17,0.779,0.751,0.725,0.943,0.241,0.169,0.232,0.221
NCI-H3122,1.05,1.08,1.04,0.959,1.08,0.822,0.735,0.676,0.859,0.636,0.61,0.66,0.555,0.328,0.34,0.379,0.49
PC-14,0.282,0.418,0.363,0.317,0.364,1.05,0.912,0.927,1.01,0.315,0.329,0.338,0.282,0.559,0.527,0.551,0.587
NCI-H1650,0.632,1.12,0.639,0.953,1.11,,,,,0.78,0.813,0.806,1.16,0.353,0.305,0.353,0.494
NCI-H1703,1.2,1.6,0.938,0.896,1.09,0.304,0.376,0.215,0.334,0.415,0.361,0.315,0.47,,,,
Calu-6,1.18,1.03,0.911,0.848,0.886,0.942,1.07,1,1.2,,0.597,0.65,0.64,,,,
NCI-H1623,,,,,,,,,,,,,,0.444,0.415,0.437,0.426
LCLC-103H,,,,,,0.964,0.949,0.977,0.9,0.788,0.757,0.795,0.817,0.405,0.355,0.456,0.541
NCI-H1792,,0.881,0.813,0.792,0.912,0.668,0.66,0.637,0.479,0.396,0.434,0.356,0.444,,,,
ChaGo-K-1,,,,,,,,,,0.458,0.414,0.433,0.352,0.214,0.23,0.223,0.225
NCI-H522,,,,,,,,,,0.754,0.678,0.667,0.619,0.522,0.551,0.502,0.588
NCI-H1299,1.01,0.952,0.957,0.932,0.824,1.14,1.1,1.21,1.15,0.982,0.924,0.937,0.862,,,,
IA-LM,0.774,0.7,0.835,0.689,0.464,0.718,0.725,0.782,0.748,0.833,0.841,0.994,0.937,,,,
NCI-H441,,,,,,0.847,0.537,0.727,0.759,0.567,0.553,0.572,0.661,0.722,0.546,0.478,0.641
EBC-1,,0.233,0.223,0.23,0.274,0.777,0.835,0.687,0.892,0.82,0.702,0.653,0.745,,,,
NCI-H1563,0.831,1.06,0.633,0.928,0.938,0.905,0.997,0.835,0.876,,,,,,,,
NCI-H2342,,,,,,,,,,0.401,0.457,0.475,0.466,0.527,0.468,0.484,0.524
A549,0.899,1.06,1.07,1,1.04,0.727,0.666,0.692,0.857,0.444,0.243,0.374,0.114,,,,
